# Experiments:
# plasma cortisol = assay: Phase I rising single-dose safety and tolerance study, metered dose inhaler, 24-hour plasma cortisol; type: in vivo, healthy male volunteers
# Protocol: Several Phase I studies were conducted using mometasone furoate formulated for delivery as a suspension in a pressurized metered dose inhaler (MDI). In a randomized, third-party blinded, placebo-controlled rising single-dose safety and tolerance study, aerosolized mometasone furoate was administered by a metered dose inhaler to eight healthy male volunteers. Doses were administered at 11 p.m. and plasma cortisol concentrations were measured during the following 24-hour period.
# [1] = Drug metabolism/clinical pharmacology study: absorption and excretion of total radioactivity after ^3H-MF by various routes; type: in vivo, normal healthy male volunteers
# Protocol: In addition, a single-dose absorption, excretion and metabolism study using 200 mcg of ^3H-mometasone furoate as the nasal spray formulation was conducted in 6 normal male volunteers. When systemic absorption (based on urinary excretion) was compared to an intravenously administered dose of ^3H-mometasone furoate, it was 8%.
# A drug metabolism and clinical pharmacology study was conducted by administering (by various routes) tritium-labeled mometasone furoate (“^3H-MF”) to 6 groups of 6 normal male volunteers in each group. Blood and urine samples were collected for measurement of total drug (including metabolites).
# The objectives of these studies in male volunteers were to determine the absorption, metabolism and excretion of ^3H-labeled mometasone furoate (“^3H-MF”) following administration by oral swallow as a solution and as an aqueous suspension of the monohydrate, by oral inhalation as a suspension from a standard metered dose inhaler (MDI) and from a metered dose inhaler containing a spacer device (Gentlehaler), by nasal inhalation as an aqueous suspension of the mometasone furoate monohydrate from a nasal spray unit and by intravenous injection as a solution.
# Thirty-six (n=6 per treatment group) normal healthy male volunteers between the ages of 19 and 40 yr. (average 29 yr.) having weights in accordance with current actuarial tables (+10%) were enrolled in these single dose studies. All subjects were determined to be in good health by their medical history, physical examinations, clinical and laboratory tests.
# Plasma, urine, expired air filters, Respirgard and fecal samples were collected and assayed for radioactivity content. The limit of quantitation (LOQ) for plasma radioactivity ranged from 0.103 to 0.138 ng eq/ml., except for the nasal spray treatment where the LOQ was 0.025 ng eq/ml. Selected plasma, urine and fecal samples were analyzed for metabolite profiles.
# Pharmacokinetics—The mean (n=6) plasma concentrations of total radioactivity are illustrated in Summary FIG. 1 and the mean (n=6) pharmacokinetic parameters derived from total plasma radioactivity are presented in Table 2.
# [2] = system: patients with asthma requiring treatment with inhaled corticosteroids; assay: Randomized double-blinded multicenter Phase II study, MDI BID for 4 weeks; type: in vivo
# Protocol: In a recently completed, randomized, double-blinded multicenter, Phase II study, 395 patients with asthma requiring treatment with inhaled corticosteroids were randomized to one of the five treatment groups: mometasone furoate (MDI 112 mcg/day, 400 mcg/day or 1000 mcg/day, beclomethasone dipropionate (BDP) 336 mcg/day, or placebo. All treatment regimens consisted of BID dosing for 4 weeks. PROVENTIL inhalation aerosol (albuterol, USP) was supplied as rescue medication.
# Efficacy was evaluated by spirometry and by physician and patient evaluation of asthma signs and symptoms. The forced expiratory volume in one second (FEV1), forced vital capacity (FVC), and forced expiratory flow between 25% to 75% (FEF25%−75%) were measured at each visit by the investigator. The peak expiratory flow rate (PEFR) was measured twice daily (AM and PM) by the patient. FEV1 at endpoint of treatment (last evaluable visit) was the primary measure of efficacy. The investigator (at all visits) and the patient (twice daily) rated wheezing, tightness in chest, shortness of breath, and cough on a scale from 0 (None) to 6 (Incapacitating). In addition, the investigator rated the overall condition of asthma on the same scale at each visit, and the patient kept a diary of the total number of asthma attacks each day, the number of night awakenings due to asthma, and the total number of puffs of Proventil (protocol-permitted rescue medication) used. The actual value and changes from Baseline were analyzed for each visit.
# [3] = system: symptomatic patients with seasonal allergic rhinitis; assay: Onset of clinical efficacy study, nasal spray, 14 days, total nasal symptom score; type: in vivo
# Protocol: The study lasted 14 days in length. Data from 201 patients were used for analysis. a. Signs and symptoms were individually scored by the patient on the diary card, and by the investigator or designee at Screening and Baseline (Day 1), Day 4, Day 8, and Day 15 after treatment. All symptoms (nasal and non-nasal) were rated by the investigator or designee according to the following scale: The overall condition of rhinitis was evaluated by the investigator or designee and patient at the same time as symptoms, and scored according to the following criteria: 3. Drug—Each patient was given a metered nasal pump spray bottle containing either an aqueous suspension of mometasone furoate or placebo. […] After the Baseline visit, each patient was instructed to enter into his/her diary the information about the time of onset of nasal relief and level of nasal symptom relief as no relief, slight, moderate, marked, or complete. At Baseline and each follow-up visit, the physician evaluated the following signs and symptoms of allergic rhinitis, scored as 0=none, 1=mild, 2=moderate, 3=severe. • a. NASAL SYMPTOMS • nasal discharge • congestion/stuffiness • sneezing • itching • b. […] At each follow-up visit post Baseline, the physician and patient evaluated the therapeutic response as 5=no relief, 4=slight relief, 3=moderate relief, 2=marked relief, 1=complete relief. After the Baseline visit, each morning and evening the patient completed a diary to assess the 8 signs and symptoms of allergic rhinitis as described above. The primary efficacy results are based on a survival analysis of the onset times of relief (defined as the first time patient experienced at least moderate relief of nasal symptoms) for the mometasone furoate nasal spray and placebo groups. In this analysis, patients reporting slight or no relief for the first 3 days after treatment were censored at Day 3. Also, results from the patient regular diary (by 15-day average) data were evaluated. Data from 201 patients were used in the survival analysis.
# [4] = system: patients with seasonal allergic rhinitis; assay: Dose ranging safety and efficacy study, aqueous nasal spray, 4 weeks; type: in vivo; settings: nasal spray 50, 100, 200, 800 mcg/day
# Excerpt: In treating allergic and non-allergic rhinitis, the aqueous suspension of mometasone furoate may be administered intranasally by inserting an appropriate device (such as the pump spray bottle used to deliver Vancenase AQ® Nasal Spray as well as the spray bottle disclosed in the Schering Corporation Industrial Design Deposit DM/026304 registered Jun. 1, 1993) into each nostril. Active drug is then expelled (nasal spray device) or could be nasally inhaled (sniffed) as a powder. Efficacy is generally assessed in a double blind fashion by a reduction in nasal symptoms (e.g., sneezing, itching, congestion, and discharge). Other objective measurements (e.g., nasal peak flow and resistance) can be used as supportive indices of efficacy.
# In a dose ranging safety and efficacy study, the mometasone furoate aqueous nasal spray formulation at doses of 50 mcg/day, 100 mcg/day, 200 mcg/day, 800 mcg/day or placebo was administered to 480 patients with seasonal allergic rhinitis for 4 weeks.
smiles,measurement,setting,value
C[C@@H]1C[C@H]2[C@@H]3CCC4=CC(=O)C=C[C@]4(C)[C@@]3(Cl)[C@@H](O)C[C@]2(C)[C@@]1(OC(=O)c1ccco1)C(=O)CCl [mometasone furoate],reduction of 24-hour area under the curve plasma cortisol profile (AUC 0-24) compared to placebo,plasma cortisol; single dose 1000 mcg by MDI at 11 p.m.,13%
same,reduction of 24-hour area under the curve plasma cortisol profile (AUC 0-24) compared to placebo,plasma cortisol; single dose 2000 mcg by MDI at 11 p.m.,23%
same,reduction of 24-hour area under the curve plasma cortisol profile (AUC 0-24) compared to placebo,plasma cortisol; single dose 4000 mcg by MDI at 11 p.m.,36%
same,safety and tolerability,"[1]; all dosage forms, single dose",safe and well tolerated
same,bioavailability,"[1]; male, human, plasma, inhaled or intranasal, 200 ug, nasal spray 200 mcg, single dose, read-out: bioavailability of mometasone furoate",< 1%
same,parent drug which reaches the bloodstream from the gastrointestinal tract,[1]; swallowed as oral suspension or by oral or nasal inhalation,less than 1%
same,"total asthma scores, assessment of overall condition, therapeutic response",[2]; all doses,superiority of all mometasone furoate doses relative to placebo
same,improvement of a.m. PEFR versus BDP,"[2]; all doses, final week of treatment",significantly better than 336 mg dose of BDP
same,FEV1 versus BDP 336 mcg/day,"[2]; two higher doses (400, 1000 mcg/day), Days 14, 21 and 28",superior to beclomethasone dipropionate
same,FEV1 versus low dose (112 mcg/day),"[2]; two higher doses, Day 21 and Day 28",significantly superior to the low mometasone furoate dose
same,reduction in total nasal symptom score from baseline,"[3]; morning & evening averaged diary, 15-days average",statistically significantly higher than that for the placebo group
same,median onset time to relief (at least moderate relief of nasal symptoms),"[3]; nasal spray 200 mcg once-a-day, survival analysis, placebo 72 hours, log-rank p<0.001",35.9 h
same,patients who recorded slight or no relief (censored) at Day 3,"[3]; of 101 patients, placebo 50 of 100",24 patients
same,efficacy relative to placebo,[4],effective relative to placebo
same,tolerability,[4],well tolerated
